Laboratory results as given in paper PMC11921695 (BMC Cancer, 2025).

System: patients with HIV-associated KS

Cn1cnc2c(F)c(Nc3ccc(Br)cc3Cl)c(C(=O)NOCCO)cc21 [selumetinib, 6-(4-Bromo-2-chloro-phenylamino)-7-fluro-3-methyl-3 H-benzoimidazole-5-carboxylic acid (2-hydroxy-ethoxy)-amide hydrogen sulphate]
10: Fatigue: Number of AEs reported (CTCAE Grade ≤2)
12: Albumin Decreased: Number of AEs reported (CTCAE Grade ≤2)
3: Eye disorders: Adverse Events Grade 2 E (E = events, any dose) | Eye disorders: Adverse Reactions Grade 2 E (E = events, any dose) | Injury, poisoning and procedural complications: Adverse Events Grade 2 E (E = events, any dose) | Psychiatric disorders: Adverse Events Grade 1 E (E = events, any dose) | Psychiatric disorders: Adverse Reactions Grade 1 E (E = events, any dose) | Skin and subcutaneous tissue disorders: Adverse Events Grade3 E (E = events, any dose) | Skin and subcutaneous tissue disorders: Adverse Reactions Grade 3 E (E = events, any dose)
133: Investigations: Adverse Events Grade 1 E (E = events, any dose)
29: Skin and subcutaneous tissue disorders: Adverse Events Grade 1 E (E = events, any dose)
5: Blood and lymphatic system disorders: Adverse Events Grade 1 E (E = events, any dose) | General disorders and administration site conditions: Adverse Events Grade 2 E (E = events, any dose) | Nervous system disorders: Adverse Reactions Grade 1 E (E = events, any dose) | Respiratory, thoracic and mediastinal disorders: Adverse Reactions Grade 1 E (E = events, any dose)
11: AST Increased: Number of AEs reported (CTCAE Grade ≤2) | Nausea: Number of AEs reported (CTCAE Grade ≤2) | Vomiting: Number of AEs reported (CTCAE Grade ≤2) | Respiratory, thoracic and mediastinal disorders: Adverse Events Grade 1 E (E = events, any dose)
7: Investigations: Adverse Events Grade 2 E (E = events, any dose) | Nervous system disorders: Adverse Events Grade 1 E (E = events, any dose)
24: Skin and subcutaneous tissue disorders: Adverse Reactions Grade 1 E (E = events, any dose)
23: General disorders and administration site conditions: Adverse Reactions Grade 1 E (E = events, any dose)
81: Investigations: Adverse Reactions Grade 1 E (E = events, any dose)
9: Eye disorders: Adverse Events Grade 1 E (E = events, any dose) | Gastrointestinal disorders: Adverse Reactions Grade 2 E (E = events, any dose) | Metabolism and nutrition disorders: Adverse Reactions Grade 1 E (E = events, any dose)
14: CPK Increased: Number of AEs reported (CTCAE Grade ≤2)
22: Red Blood Cell Count Decreased: Number of AEs reported (CTCAE Grade ≤2)
three: grade 3 ARs, all rash acneiform (75 mg bd selumetinib)
4: Blood and lymphatic system disorders: Adverse Reactions Grade 1 E (E = events, any dose) | Infections and infestations: Adverse Reactions Grade 2 E (E = events, any dose) | Musculoskeletal and connective tissue disorders: Adverse Events Grade 1 E (E = events, any dose) | Blood and lymphatic system disorders: Adverse Events Grade 1 N (N = patients, any dose)
0: Blood and lymphatic system disorders: Adverse Events Grade3 E (E = events, any dose) | Blood and lymphatic system disorders: Adverse Reactions Grade 3 E (E = events, any dose) | Cardiac disorders: Adverse Events Grade 2 E (E = events, any dose) | Cardiac disorders: Adverse Events Grade3 E (E = events, any dose) | Cardiac disorders: Adverse Reactions Grade 1 E (E = events, any dose) | Cardiac disorders: Adverse Reactions Grade 2 E (E = events, any dose) | Cardiac disorders: Adverse Reactions Grade 3 E (E = events, any dose) | Eye disorders: Adverse Events Grade3 E (E = events, any dose) | Eye disorders: Adverse Reactions Grade 3 E (E = events, any dose) | Gastrointestinal disorders: Adverse Events Grade3 E (E = events, any dose) | Gastrointestinal disorders: Adverse Reactions Grade 3 E (E = events, any dose) | General disorders and administration site conditions: Adverse Reactions Grade 3 E (E = events, any dose) | Infections and infestations: Adverse Events Grade3 E (E = events, any dose) | Infections and infestations: Adverse Reactions Grade 3 E (E = events, any dose) | Injury, poisoning and procedural complications: Adverse Events Grade3 E (E = events, any dose) | Injury, poisoning and procedural complications: Adverse Reactions Grade 1 E (E = events, any dose) | Injury, poisoning and procedural complications: Adverse Reactions Grade 2 E (E = events, any dose) | Injury, poisoning and procedural complications: Adverse Reactions Grade 3 E (E = events, any dose) | Investigations: Adverse Reactions Grade 3 E (E = events, any dose) | Metabolism and nutrition disorders: Adverse Events Grade 2 E (E = events, any dose) | Metabolism and nutrition disorders: Adverse Events Grade3 E (E = events, any dose) | Metabolism and nutrition disorders: Adverse Reactions Grade 2 E (E = events, any dose) | Metabolism and nutrition disorders: Adverse Reactions Grade 3 E (E = events, any dose) | Musculoskeletal and connective tissue disorders: Adverse Events Grade 2 E (E = events, any dose) | Musculoskeletal and connective tissue disorders: Adverse Events Grade3 E (E = events, any dose) | Musculoskeletal and connective tissue disorders: Adverse Reactions Grade 2 E (E = events, any dose) | Musculoskeletal and connective tissue disorders: Adverse Reactions Grade 3 E (E = events, any dose) | Nervous system disorders: Adverse Events Grade 2 E (E = events, any dose) | Nervous system disorders: Adverse Events Grade3 E (E = events, any dose) | Nervous system disorders: Adverse Reactions Grade 2 E (E = events, any dose) | Nervous system disorders: Adverse Reactions Grade 3 E (E = events, any dose) | Psychiatric disorders: Adverse Events Grade 2 E (E = events, any dose) | Psychiatric disorders: Adverse Events Grade3 E (E = events, any dose) | Psychiatric disorders: Adverse Reactions Grade 2 E (E = events, any dose) | Psychiatric disorders: Adverse Reactions Grade 3 E (E = events, any dose) | Renal and urinary disorders: Adverse Events Grade 2 E (E = events, any dose) | Renal and urinary disorders: Adverse Events Grade3 E (E = events, any dose) | Renal and urinary disorders: Adverse Reactions Grade 2 E (E = events, any dose) | Renal and urinary disorders: Adverse Reactions Grade 3 E (E = events, any dose) | Respiratory, thoracic and mediastinal disorders: Adverse Events Grade3 E (E = events, any dose) | Respiratory, thoracic and mediastinal disorders: Adverse Reactions Grade 3 E (E = events, any dose) | Vascular disorders: Adverse Events Grade 2 E (E = events, any dose) | Vascular disorders: Adverse Events Grade3 E (E = events, any dose) | Vascular disorders: Adverse Reactions Grade 1 E (E = events, any dose) | Vascular disorders: Adverse Reactions Grade 2 E (E = events, any dose) | Vascular disorders: Adverse Reactions Grade 3 E (E = events, any dose)
44: Gastrointestinal disorders: Adverse Reactions Grade 1 E (E = events, any dose)
47: Gastrointestinal disorders: Adverse Events Grade 1 E (E = events, any dose)
6: Eye disorders: Adverse Reactions Grade 1 E (E = events, any dose) | Infections and infestations: Adverse Events Grade 2 E (E = events, any dose) | Investigations: Adverse Reactions Grade 2 E (E = events, any dose)
16: patients who experienced at least one adverse event (AE) (16 treated patients) | Skin and subcutaneous tissue disorders: Adverse Reactions Grade 2 E (E = events, any dose)
1: Blood and lymphatic system disorders: Adverse Events Grade 2 E (E = events, any dose) | Blood and lymphatic system disorders: Adverse Reactions Grade 2 E (E = events, any dose) | Cardiac disorders: Adverse Events Grade 1 E (E = events, any dose) | General disorders and administration site conditions: Adverse Events Grade3 E (E = events, any dose) | Infections and infestations: Adverse Reactions Grade 1 E (E = events, any dose) | Renal and urinary disorders: Adverse Reactions Grade 1 E (E = events, any dose) | Respiratory, thoracic and mediastinal disorders: Adverse Reactions Grade 2 E (E = events, any dose) | Blood and lymphatic system disorders: Adverse Events Grade 2 N (N = patients, any dose)
13: ALT Increased: Number of AEs reported (CTCAE Grade ≤2) | Gastrointestinal disorders: Adverse Events Grade 2 E (E = events, any dose) | Metabolism and nutrition disorders: Adverse Events Grade 1 E (E = events, any dose)
2: General disorders and administration site conditions: Adverse Reactions Grade 2 E (E = events, any dose) | Infections and infestations: Adverse Events Grade 1 E (E = events, any dose) | Injury, poisoning and procedural complications: Adverse Events Grade 1 E (E = events, any dose) | Investigations: Adverse Events Grade3 E (E = events, any dose) | Musculoskeletal and connective tissue disorders: Adverse Reactions Grade 1 E (E = events, any dose) | Renal and urinary disorders: Adverse Events Grade 1 E (E = events, any dose) | Respiratory, thoracic and mediastinal disorders: Adverse Events Grade 2 E (E = events, any dose) | Vascular disorders: Adverse Events Grade 1 E (E = events, any dose)
17: Skin and subcutaneous tissue disorders: Adverse Events Grade 2 E (E = events, any dose)
33: General disorders and administration site conditions: Adverse Events Grade 1 E (E = events, any dose)
